Experimental data as given in ChEMBL document CHEMBL5696442, “Discovery of type II inhibitors of TGFβ-activated kinase 1 (TAK1) and mitogen-activated protein kinase kinase kinase kinase 2 (MAP4K2)” (J Med Chem, 2015).
Calls of active or inactive are those of the source. No cut-off for these calls is given here.

Tests used:
[1] = target: T1, Mitogen-activated protein kinase kinase kinase 2 (Homo sapiens) (UniProt Q9Y2U5); test: Inhibition of MAP3K2 Lys2 labeling site in human Huh-7 cell lysate at 1 uM by KiNativ Profiling analysis relative to control; type: subcellular
T1 sequence (whole entry): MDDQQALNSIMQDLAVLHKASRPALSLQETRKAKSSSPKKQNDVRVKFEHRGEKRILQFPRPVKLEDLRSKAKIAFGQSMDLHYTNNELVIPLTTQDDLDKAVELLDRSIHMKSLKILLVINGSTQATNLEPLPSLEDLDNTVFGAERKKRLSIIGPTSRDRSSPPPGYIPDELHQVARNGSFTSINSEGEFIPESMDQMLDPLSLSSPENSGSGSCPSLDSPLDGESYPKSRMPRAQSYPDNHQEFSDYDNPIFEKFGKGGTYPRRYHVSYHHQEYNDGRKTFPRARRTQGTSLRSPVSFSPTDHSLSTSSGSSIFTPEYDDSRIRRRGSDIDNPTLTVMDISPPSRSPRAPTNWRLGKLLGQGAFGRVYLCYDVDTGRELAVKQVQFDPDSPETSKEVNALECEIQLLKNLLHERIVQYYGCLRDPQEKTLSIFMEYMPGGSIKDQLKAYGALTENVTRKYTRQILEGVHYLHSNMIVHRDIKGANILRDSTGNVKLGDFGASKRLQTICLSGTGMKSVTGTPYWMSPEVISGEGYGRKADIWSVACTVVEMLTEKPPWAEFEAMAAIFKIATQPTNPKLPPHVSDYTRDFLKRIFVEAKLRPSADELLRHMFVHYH

[2] = target: T2, Serine/threonine-protein kinase ULK1 (Homo sapiens) (UniProt O75385); test: Inhibition of ULK1 (unknown origin) at 10 uM by Ambit Kinomescan binding assay
T2 sequence (whole entry): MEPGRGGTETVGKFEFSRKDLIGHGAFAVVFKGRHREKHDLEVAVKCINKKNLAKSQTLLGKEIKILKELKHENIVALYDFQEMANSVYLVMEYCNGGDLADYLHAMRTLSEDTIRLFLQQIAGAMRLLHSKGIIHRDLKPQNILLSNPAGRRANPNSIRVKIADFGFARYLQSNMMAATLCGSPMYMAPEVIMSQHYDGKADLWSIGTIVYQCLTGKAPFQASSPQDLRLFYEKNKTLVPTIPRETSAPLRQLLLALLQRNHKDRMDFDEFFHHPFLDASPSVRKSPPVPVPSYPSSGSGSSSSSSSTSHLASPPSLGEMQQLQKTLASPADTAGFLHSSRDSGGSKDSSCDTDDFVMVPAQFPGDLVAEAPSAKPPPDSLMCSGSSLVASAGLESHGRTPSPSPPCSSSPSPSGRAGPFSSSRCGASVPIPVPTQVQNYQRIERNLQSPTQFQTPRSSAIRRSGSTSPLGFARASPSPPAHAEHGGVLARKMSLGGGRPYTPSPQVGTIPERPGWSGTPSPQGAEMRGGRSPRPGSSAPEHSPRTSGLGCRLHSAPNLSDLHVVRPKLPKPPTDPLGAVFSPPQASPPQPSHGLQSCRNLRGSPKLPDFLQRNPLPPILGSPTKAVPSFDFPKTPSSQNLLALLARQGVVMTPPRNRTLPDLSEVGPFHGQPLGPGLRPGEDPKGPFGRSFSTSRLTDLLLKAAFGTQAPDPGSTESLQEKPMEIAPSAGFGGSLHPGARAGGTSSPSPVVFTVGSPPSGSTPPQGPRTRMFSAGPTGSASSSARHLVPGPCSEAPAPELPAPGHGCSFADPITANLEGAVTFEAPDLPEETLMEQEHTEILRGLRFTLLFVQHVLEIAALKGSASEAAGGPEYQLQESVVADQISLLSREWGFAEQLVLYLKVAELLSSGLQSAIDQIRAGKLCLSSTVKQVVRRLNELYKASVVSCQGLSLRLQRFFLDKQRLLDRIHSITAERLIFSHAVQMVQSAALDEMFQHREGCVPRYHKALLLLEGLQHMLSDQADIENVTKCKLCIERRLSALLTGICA

[3] = target: Dual specificity mitogen-activated protein kinase kinase 1 (Homo sapiens) (UniProt Q02750); test: Inhibition of MAP2K1 Lys1 labeling site in human A-375 cells at 5 uM by KiNativ Profiling analysis relative to control; type: cell-based
Dual specificity mitogen-activated protein kinase kinase 1 (Homo sapiens), sequence (Q02750 whole entry): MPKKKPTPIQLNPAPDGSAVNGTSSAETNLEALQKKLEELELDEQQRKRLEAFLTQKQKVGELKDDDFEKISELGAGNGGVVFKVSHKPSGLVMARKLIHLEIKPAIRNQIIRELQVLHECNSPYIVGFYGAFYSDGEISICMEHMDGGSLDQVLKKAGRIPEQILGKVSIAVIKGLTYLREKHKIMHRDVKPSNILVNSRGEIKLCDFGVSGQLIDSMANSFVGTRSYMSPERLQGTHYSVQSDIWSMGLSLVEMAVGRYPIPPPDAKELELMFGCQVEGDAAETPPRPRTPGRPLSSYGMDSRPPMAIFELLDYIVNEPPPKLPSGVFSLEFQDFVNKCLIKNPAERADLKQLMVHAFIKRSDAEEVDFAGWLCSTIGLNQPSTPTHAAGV

[4] = target: DNA-dependent protein kinase catalytic subunit (Homo sapiens) (UniProt P78527); test: Inhibition of PRKDC ATP labeling site harbouring KGGSWIQEINVAEK in human Huh-7 cells at 10 uM by KiNativ Profiling analysis relative to control; type: cell-based
DNA-dependent protein kinase catalytic subunit (Homo sapiens), sequence (P78527 whole entry): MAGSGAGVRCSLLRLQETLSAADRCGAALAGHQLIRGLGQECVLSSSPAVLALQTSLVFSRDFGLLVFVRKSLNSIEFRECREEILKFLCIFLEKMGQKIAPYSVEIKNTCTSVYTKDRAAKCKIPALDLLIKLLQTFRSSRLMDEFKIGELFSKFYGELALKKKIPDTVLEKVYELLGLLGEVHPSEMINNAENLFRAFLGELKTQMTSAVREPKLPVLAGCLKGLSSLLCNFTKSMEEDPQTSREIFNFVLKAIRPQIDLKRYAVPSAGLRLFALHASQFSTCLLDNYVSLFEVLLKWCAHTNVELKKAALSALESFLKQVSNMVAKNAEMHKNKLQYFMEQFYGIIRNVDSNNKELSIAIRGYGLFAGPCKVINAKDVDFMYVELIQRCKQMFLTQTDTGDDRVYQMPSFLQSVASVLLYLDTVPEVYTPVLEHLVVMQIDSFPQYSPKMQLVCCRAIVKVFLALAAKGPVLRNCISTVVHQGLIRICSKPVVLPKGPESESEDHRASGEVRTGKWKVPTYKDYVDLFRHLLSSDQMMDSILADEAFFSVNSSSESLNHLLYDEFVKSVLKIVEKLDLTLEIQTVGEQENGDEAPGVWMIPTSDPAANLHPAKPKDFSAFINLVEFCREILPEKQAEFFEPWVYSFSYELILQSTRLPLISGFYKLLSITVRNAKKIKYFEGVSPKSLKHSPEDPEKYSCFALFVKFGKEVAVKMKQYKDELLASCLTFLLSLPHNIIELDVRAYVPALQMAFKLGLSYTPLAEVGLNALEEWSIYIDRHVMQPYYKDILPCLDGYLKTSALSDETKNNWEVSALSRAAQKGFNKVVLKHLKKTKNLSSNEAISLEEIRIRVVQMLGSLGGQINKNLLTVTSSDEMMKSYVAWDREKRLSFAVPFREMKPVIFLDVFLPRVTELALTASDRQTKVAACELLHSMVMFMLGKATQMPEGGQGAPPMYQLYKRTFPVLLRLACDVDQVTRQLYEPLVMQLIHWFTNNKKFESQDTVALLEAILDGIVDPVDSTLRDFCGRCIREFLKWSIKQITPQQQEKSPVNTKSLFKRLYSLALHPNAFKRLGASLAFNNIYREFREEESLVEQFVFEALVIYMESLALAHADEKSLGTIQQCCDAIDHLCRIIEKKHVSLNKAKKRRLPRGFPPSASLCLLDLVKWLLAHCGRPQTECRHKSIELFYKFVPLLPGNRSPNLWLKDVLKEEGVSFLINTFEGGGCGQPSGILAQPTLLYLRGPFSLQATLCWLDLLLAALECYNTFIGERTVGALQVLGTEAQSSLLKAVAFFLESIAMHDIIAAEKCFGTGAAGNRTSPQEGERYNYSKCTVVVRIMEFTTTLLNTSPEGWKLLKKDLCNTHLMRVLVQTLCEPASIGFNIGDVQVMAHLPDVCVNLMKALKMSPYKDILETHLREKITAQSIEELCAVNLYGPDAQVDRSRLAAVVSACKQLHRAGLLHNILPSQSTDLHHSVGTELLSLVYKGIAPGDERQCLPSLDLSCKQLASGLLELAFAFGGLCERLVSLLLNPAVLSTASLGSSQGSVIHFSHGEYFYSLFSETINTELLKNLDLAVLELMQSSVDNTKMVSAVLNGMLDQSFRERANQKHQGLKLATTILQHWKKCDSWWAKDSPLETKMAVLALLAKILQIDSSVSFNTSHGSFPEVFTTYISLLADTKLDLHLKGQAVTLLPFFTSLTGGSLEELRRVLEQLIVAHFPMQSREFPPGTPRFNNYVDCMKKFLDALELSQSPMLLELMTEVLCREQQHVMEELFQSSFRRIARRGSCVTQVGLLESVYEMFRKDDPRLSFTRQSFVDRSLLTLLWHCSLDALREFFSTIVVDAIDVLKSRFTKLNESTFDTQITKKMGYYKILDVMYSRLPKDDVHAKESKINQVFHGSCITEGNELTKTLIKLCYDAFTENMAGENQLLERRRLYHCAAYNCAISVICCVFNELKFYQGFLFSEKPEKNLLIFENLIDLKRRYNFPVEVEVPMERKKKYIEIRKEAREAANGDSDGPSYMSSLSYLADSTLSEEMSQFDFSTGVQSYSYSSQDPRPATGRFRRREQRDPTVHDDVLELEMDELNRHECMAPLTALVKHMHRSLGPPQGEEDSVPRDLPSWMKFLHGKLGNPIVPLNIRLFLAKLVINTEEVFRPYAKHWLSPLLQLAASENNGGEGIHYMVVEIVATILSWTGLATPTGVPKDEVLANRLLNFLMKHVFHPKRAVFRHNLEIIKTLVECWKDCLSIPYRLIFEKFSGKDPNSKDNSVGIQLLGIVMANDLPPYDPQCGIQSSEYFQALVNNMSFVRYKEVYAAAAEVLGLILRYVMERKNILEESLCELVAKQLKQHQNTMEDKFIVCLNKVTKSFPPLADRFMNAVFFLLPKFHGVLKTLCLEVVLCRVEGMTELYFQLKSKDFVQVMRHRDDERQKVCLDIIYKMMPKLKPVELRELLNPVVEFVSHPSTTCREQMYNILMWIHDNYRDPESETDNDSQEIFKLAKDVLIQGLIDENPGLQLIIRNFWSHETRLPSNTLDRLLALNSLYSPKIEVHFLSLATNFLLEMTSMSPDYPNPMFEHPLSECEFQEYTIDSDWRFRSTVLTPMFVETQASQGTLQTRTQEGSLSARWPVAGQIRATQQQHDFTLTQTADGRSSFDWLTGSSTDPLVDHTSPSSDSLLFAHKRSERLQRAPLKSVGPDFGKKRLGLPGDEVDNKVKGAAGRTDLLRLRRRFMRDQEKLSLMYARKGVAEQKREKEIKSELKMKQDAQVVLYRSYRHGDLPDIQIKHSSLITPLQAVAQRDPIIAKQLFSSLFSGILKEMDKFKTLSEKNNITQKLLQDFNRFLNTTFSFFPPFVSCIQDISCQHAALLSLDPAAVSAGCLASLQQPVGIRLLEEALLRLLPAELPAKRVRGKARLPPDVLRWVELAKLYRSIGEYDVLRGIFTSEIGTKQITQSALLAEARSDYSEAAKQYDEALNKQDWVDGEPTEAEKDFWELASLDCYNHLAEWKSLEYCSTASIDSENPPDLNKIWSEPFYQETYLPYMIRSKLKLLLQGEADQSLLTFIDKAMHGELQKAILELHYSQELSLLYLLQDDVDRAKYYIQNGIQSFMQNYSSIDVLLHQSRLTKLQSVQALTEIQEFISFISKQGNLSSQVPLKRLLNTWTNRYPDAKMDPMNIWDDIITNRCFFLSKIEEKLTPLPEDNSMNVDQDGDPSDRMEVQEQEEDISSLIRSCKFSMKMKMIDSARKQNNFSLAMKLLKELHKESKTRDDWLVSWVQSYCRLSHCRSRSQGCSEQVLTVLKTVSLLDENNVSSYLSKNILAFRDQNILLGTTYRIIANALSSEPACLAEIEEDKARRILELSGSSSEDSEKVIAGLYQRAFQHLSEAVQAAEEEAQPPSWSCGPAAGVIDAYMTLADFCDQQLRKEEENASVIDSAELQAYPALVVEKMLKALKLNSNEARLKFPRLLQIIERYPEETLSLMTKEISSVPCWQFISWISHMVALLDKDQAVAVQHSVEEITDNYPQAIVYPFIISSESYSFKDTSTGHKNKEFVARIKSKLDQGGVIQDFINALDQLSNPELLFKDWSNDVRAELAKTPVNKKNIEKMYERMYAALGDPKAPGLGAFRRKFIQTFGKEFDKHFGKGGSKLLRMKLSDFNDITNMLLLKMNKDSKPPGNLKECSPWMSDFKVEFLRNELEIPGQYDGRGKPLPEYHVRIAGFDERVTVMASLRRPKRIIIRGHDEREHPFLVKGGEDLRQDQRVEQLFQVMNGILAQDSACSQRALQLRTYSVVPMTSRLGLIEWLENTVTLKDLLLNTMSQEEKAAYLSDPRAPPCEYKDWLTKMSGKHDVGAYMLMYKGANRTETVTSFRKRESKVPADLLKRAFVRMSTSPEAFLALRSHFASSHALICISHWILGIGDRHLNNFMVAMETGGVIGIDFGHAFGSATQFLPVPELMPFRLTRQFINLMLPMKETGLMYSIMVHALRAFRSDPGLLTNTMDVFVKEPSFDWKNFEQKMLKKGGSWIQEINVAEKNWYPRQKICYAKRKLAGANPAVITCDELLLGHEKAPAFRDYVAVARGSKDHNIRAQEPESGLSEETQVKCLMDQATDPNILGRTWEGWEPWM

Row | Compound | inhibition [1] [%] | inhibition [2] | inhibition [3] [%] | inhibition [4] [%]
1 | CNc1cc(Oc2cc(C(=O)Nc3cc(N4CCN(C)CC4)cc(C(F)(F)F)c3)ccc2C)ncn1 | 1.9 | – | – | –
2 | CCN1CCN(Cc2ccc(NC(=O)c3ccc(C)c(Oc4ccnc5[nH]ccc45)c3)cc2C(F)(F)F)CC1 | – | inactive | 1.3 | 0.2
